Patent US20240309007A1, “CRYSTALLINE FORMS OF 3-{4-[(2R)-2-AMINOPROPOXY]PHENYL}-N-[(1R)- 1-(3-FLUOROPHENYL) ETHYL]IMIDAZO[1,2-B]PYRIDAZIN-6-AMINE AND SALTS THEREOF” (ANHEART THERAPEUTICS (HANGZHOU) CO., LTD., priority 2021, published 2024)
Entries after “also recorded” stand apart in the source; their conditions may differ.

Test: Dynamic Vapor Sorption (DVS), hygroscopicity
Type: physicochemical
Settings: for weight increase (DVS): at 80% RH, 25±1° C.; for hygroscopicity (in words): from DVS weight increase at 80% RH
Description: Dynamic Vapor Sorption (DVS) was performed by using Intrinsic DVS (Surface Measurement Systems, UK). A sample was weighed in an amount of 20-30 mg and was placed in a sample chamber. The measurement was performed at DMDT mode when the temperature of the sample chamber was maintained at 25±1° C.

Row | Compound | weight increase (DVS) | hygroscopicity (in words) | crystalline form (XRPD) of the sample before and after the DVS test
1 | C[C@@H](N)COc1ccc(-c2cnc3ccc(N[C@H](C)c4cccc(F)c4)nn23)cc1 [crystalline form C of Compound 1 adipate, 3-{4-[(2R)-2-aminopropoxy]phenyl}-N-[(1R)-1-(3-fluorophenyl)ethyl]imidazo[1,2-b]pyridazin-6-amine] | about 1% | low hygroscopicity | 
2 | C[C@@H](N)COc1ccc(-c2cnc3ccc(N[C@H](C)c4cccc(F)c4)nn23)cc1 [crystalline form B of Compound 1 adipate, 3-{4-[(2R)-2-aminopropoxy]phenyl}-N-[(1R)-1-(3-fluorophenyl)ethyl]imidazo[1,2-b]pyridazin-6-amine] | about 8.2% | has hygroscopicity | 
3 | C[C@@H](N)COc1ccc(-c2cnc3ccc(N[C@H](C)c4cccc(F)c4)nn23)cc1 [crystalline form D of Compound 1 free base] [3-{4-[(2R)-2-aminopropoxy]phenyl}-N-[(1R)-1-(3-fluorophenyl)ethyl]imidazo[1,2-b]pyridazin-6-amine] | 2.896% | some hygroscopicity | did not change
4 | C[C@@H](N)COc1ccc(-c2cnc3ccc(N[C@H](C)c4cccc(F)c4)nn23)cc1 [crystalline form D of Compound 1 adipate, 3-{4-[(2R)-2-aminopropoxy]phenyl}-N-[(1R)-1-(3-fluorophenyl)ethyl]imidazo[1,2-b]pyridazin-6-amine] |  | low hygroscopicity | 
5 | C[C@@H](N)COc1ccc(-c2cnc3ccc(N[C@H](C)c4cccc(F)c4)nn23)cc1 [crystalline form A of Compound 1 free base] [3-{4-[(2R)-2-aminopropoxy]phenyl}-N-[(1R)-1-(3-fluorophenyl)ethyl]imidazo[1,2-b]pyridazin-6-amine] |  | almost no hygroscopicity; also recorded: very low or nearly no hygroscopicity | did not change
6 | C[C@@H](N)COc1ccc(-c2cnc3ccc(N[C@H](C)c4cccc(F)c4)nn23)cc1 [crystalline form C of Compound 1 free base] [3-{4-[(2R)-2-aminopropoxy]phenyl}-N-[(1R)-1-(3-fluorophenyl)ethyl]imidazo[1,2-b]pyridazin-6-amine] |  | has hygroscopicity | no crystalline form change
7 | C[C@@H](N)COc1ccc(-c2cnc3ccc(N[C@H](C)c4cccc(F)c4)nn23)cc1 [crystalline form B of Compound 1 free base] [3-{4-[(2R)-2-aminopropoxy]phenyl}-N-[(1R)-1-(3-fluorophenyl)ethyl]imidazo[1,2-b]pyridazin-6-amine] |  | has hygroscopicity | changed
